“Also recorded” adds a separate entry of the source. Read-outs that look alike come from different tables or passages of the source.
T1: GIRK ¼ potassium channel (Homo sapiens, UniProt P48544+P48549)
T1 sequence (P48549 1-501): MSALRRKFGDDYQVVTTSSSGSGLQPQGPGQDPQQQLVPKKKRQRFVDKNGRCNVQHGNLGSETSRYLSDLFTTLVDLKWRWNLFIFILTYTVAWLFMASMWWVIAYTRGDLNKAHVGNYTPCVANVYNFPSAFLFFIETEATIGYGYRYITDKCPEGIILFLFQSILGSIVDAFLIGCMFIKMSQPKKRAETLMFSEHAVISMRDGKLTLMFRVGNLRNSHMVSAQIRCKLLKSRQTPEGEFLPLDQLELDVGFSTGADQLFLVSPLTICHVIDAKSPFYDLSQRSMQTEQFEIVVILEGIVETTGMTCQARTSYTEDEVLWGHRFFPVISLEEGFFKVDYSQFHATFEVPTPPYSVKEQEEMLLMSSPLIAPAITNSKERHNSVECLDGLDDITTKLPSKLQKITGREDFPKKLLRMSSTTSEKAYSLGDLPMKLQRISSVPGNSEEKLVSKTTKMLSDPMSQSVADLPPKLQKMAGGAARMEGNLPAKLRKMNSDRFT
T1 sequence (P48544 1-419): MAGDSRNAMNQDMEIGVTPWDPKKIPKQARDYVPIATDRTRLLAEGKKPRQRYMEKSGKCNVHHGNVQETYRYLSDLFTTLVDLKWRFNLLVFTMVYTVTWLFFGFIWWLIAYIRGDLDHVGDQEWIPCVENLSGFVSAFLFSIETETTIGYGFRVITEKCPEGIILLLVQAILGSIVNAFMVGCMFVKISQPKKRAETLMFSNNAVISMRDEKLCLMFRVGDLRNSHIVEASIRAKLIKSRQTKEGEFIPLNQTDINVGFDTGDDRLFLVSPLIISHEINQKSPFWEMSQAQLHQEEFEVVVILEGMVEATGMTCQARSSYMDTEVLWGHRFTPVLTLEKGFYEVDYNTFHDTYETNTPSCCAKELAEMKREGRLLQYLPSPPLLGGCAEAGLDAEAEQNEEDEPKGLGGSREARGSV


What was measured:
[1] = tested on: BMP-7 treated NG108-15 neuroblastoma×glioma cells; test: Cell-cell adhesion (short-term aggregation) assay in BMP-7 treated NG108-15 cells; assay type: cell-based, rat and mouse; details: for Inhibition of cell-cell adhesion (in words): both cellular systems (NG108-15 + BMP-7 and L1-expressing NIH/3T3); for Inhibition of cell-cell adhesion at higher concentrations (in words): concentrations 5-10 fold higher than those reported in Table 1
Procedure: NIH/3T3 cells were cultured in Dulbecco's minimum Eagle medium (DMEM) (Life Technologies, Gaithersburg, Md.) supplemented with 10% normal calf serum (Intergen, Purchase, N.Y.) and 400 μg/ml G418 (Life Technologies). NG108-15 neuroblastoma×glioma cells (passages 21 to 30) were plated in serum-free, defined medium (Reference 16). At the start of the morphogenetic and cell adhesion assays, serum-free medium containing BMP-7 (Creative BioMolecules, Hopkinton, Ma.) (1-40 ng/ml, final) was added daily to the NG108-15 cells. Both cell lines were cultured at 37° C., in an atmosphere of 90% air and 10% CO2. Three NIH/3T3 subclones were utilized in these studies: 2B2-L1, 2A2-L1 and Vec-1A5. The 2B2-L1 and 2A2-L1 cell lines are subclones derived from a stable transfection of NIH/3T3 cells with the human L1 cDNA, and Vec-1A5 is a subclone from a transfection with the empty expression vector (Reference 12).
Cells were cultured and cell adhesion assays were performed in the absence and presence of the alcohols listed below in Table 1. The concentrations of alcohols used in the adhesion assays were calculated to produce membrane concentrations equivalent to 50-100 mM ethanol. Membrane/buffer partition coefficients (Pm/b) were obtained or were calculated from published octanol/water partition coefficients (Reference 15). Molar volumes were obtained from published sources (References 15) or were calculated from molecular weights and densities at 20° C.
(§1) Cell-cell adhesion was measured using a modified short-term aggregation assay of sub-confluent cells (Reference 12). Cells were detached by gentle agitation, mechanically dissociated to obtain a single-cell suspension, and diluted in PBS supplemented with 0.1 mg/ml DNase to 350,000 cells/ml for the NIH/3T3 cells, and 250,000 cells/ml for the NG108-15 cells. One ml of the cell suspension was added per well (4.5 cm^2) of a 12-well plate. After addition of the alcohols, the cells were gently mixed and mechanically shaken for 30 minutes at room temperature on an orbital shaker set at 60 to 80 rpm. Cells were viewed at a final magnification of 200×, and each well was scored for single and adherent cells in five or six microscopic fields of view. We counted approximately 100 cells per field of view and 600 cells per well. The percentage of adherent cells was calculated for each microscopic field of view and averaged. To calculate the magnitude of ethanol inhibition, we subtracted the values for cell adhesion with the Vec-1A5 cells from those of the 2B2-L1 or 2A2-L1 cell lines. Similarly, the values for cell adhesion in NG108-15 cells cultured in serum-free medium were subtracted from those of NG108-15 cells treated with BMP-7.
We tested the effects of a series of alcohols on cell-cell adhesion in two well-characterized model systems. NG108-15 cells were incubated for 48 hours in a serum-free medium supplemented with 10-20 ng/ml BMP-7 to induce L1 and N-CAM gene expression (Reference 10). Parallel experiments were performed using two ethanol-sensitive NIH/3T3 cell lines transfected with human L1 (2B2-L1 and 2A2-L1) (Reference 12) and a NIH/3T3 cell line transfected with the empty expression vector (1A5-V).

[2] = tested on: NIH/3T3-L1 (2B2-L1) cells; test: Antagonism of 1-butanol inhibition of cell adhesion in NIH/3T3-L1 (2B2-L1) cells; assay type: cell-based, rat
Procedure: as §1, with “BMP-7. […]” for “BMP-7.”

[3] = from published source or octanol/water partition coefficient divided by 5; cited from earlier work
[4] = tested on: NG108-15 cells; test: BMP-7 morphogenesis (cell clusters) in NG108-15 cells; assay type: cell-based, rat and mouse; details: for Antagonism of ethanol inhibition of BMP-7 morphogenesis: 50 mM ethanol and 0.05 mM 1-octanol, 3 days
Procedure: NG108-15 cells were plated from suspensions of single cells at a density of 50,000 cells/well in poly-D-lysine-coated, 6-well plated containing serum-free medium in the absence or presence of BMP-7, as described (References 17-18). […] Control cultures were treated similarly. The media for all cells was replaced daily following the addition of ethanol. […] A cell cluster was defined as a group of three or more cells that adhered to each other along at least one quarter of their cell bodies (Reference 19). The percentage of cells in clusters was calculated by dividing the number of cells present in clusters by the total number of cells (150 to 200) in each field. Values obtained for each field of a treatment group were then averaged.
Treatment with BMP-7 for 48 hours causes NG108-15 cells to grow in clusters of adherent cells (BMP-7 morphogenesis), rather than as predominantly single cells.
The percentage of cells in clusters of three or more cells was scored from two separate fields viewed under 200×magnification.

[5] = tested on: BMP-7 treated NG108-15 cells; test: Antagonism of short-chain alcohol inhibition of cell adhesion in BMP-7 treated NG108-15 cells; assay type: cell-based, rat and mouse; details: for Antagonism of inhibition of cell-cell adhesion by 1-butanol (in words): 2 mM 1-butanol, BMP-7 treated NG108-15 cells; for Antagonism of the effects of 3-methyl-1-butanol on cell adhesion (in words): 3 mM 3-methyl-1-butanol; for Antagonism of the effects of ethanol on cell adhesion (in words): 100 mM ethanol
Procedure: as §1

[6] = published or calculated from molecular weight and density at 20° C.; cited from earlier work
[7] = biological target: T1, GIRK ¼ potassium channel; details: Reference 20; cited from earlier work
[8] = NG108-15, read-out: IC50 for antagonism of 1-butanol (and ethanol) inhibition of cell-cell adhesion

Molecule	Inhibition of cell-cell adhesion (in words) [1]	P(m/b) membrane/buffer partition coefficient [3]	Inhibition of cell-cell adhesion at higher concentrations (in words) [1]	Vm molar volume [6]	further results
1-butanol	maximally inhibited	–	–	–	1-butanol inhibition of cell-cell adhesion, control ([2]; 2B2L1 cells, no 1-octanol pretreatment, washed): 43.6±3.0%
CCCCCCCCO [1-octanol]	not inhibited	189	inactivity	158 mL/mol	Antagonism of ethanol inhibition of BMP-7 morphogenesis [4]: antagonized; Antagonism of ethanol inhibition of BMP-7 morphogenesis ([4]; listed as Octanol): completely abolished; Antagonism of inhibition of cell-cell adhesion by 1-butanol (in words) [5]: completely abolished; Antagonism of the effects of 3-methyl-1-butanol on cell adhesion (in words) [5]: abolished; Antagonism of the effects of ethanol on cell adhesion (in words) [5]: abolished; IC50 [5, 8]: 3.6 µM; IC50 ([5]; NG108-15, read-out: IC50 for antagonism of 1-butanol inhibition of cell-cell adhesion): 3.6 µM; Potency of antagonism relative to 1-pentanol ([5]; ratio of IC50 values): approximately 200 times; Mechanism of antagonism of 1-butanol inhibition (in words) ([2]; 1-octanol 5 and 50 μM, 2B2-L1 cells): complete, reversible, and non-competitive; also recorded: reduced the maximal effectiveness; Antagonism of ethanol enhancement of GIRK ¼ potassium channel activity [7]: did not antagonize
CCCCCO [1-pentanol]	not inhibited	5.02	inactivity	108 mL/mol	Antagonism of inhibition of cell-cell adhesion by 1-butanol (in words) [5]: completely abolished; Antagonism of the effects of 3-methyl-1-butanol on cell adhesion (in words) [5]: abolished; Antagonism of the effects of ethanol on cell adhesion (in words) [5]: abolished; IC50 [5, 8]: 715 µM
CCCO [1-propanol]	active	–	–	–	–
CCC(CC)CO [2-ethyl-1-butanol]	did not reduce activity	9.14	–	123 mL/mol	–
CC(C)CO [2-methyl-1-propanol]	active	1.10	–	90 mL/mol	–
CCCC(C)(C)O [2-methyl-2-pentanol]	–	5.20	–	122 mL/mol	–
CCCC(C)O (centres unmarked) [2-pentanol]	abolished activity	4.38	–	109 mL/mol	–
CC(C)(C)CCO [3,3-dimethyl-1-butanol]	did not reduce activity	5.77	–	121 mL/mol	Potency for inhibition of cell adhesion relative to 2-ethyl-1-butanol ([1]; IC50 comparison, FIG. 2): more than four times as potent
C=CCCO [3-buten-1-ol]	abolished activity	1.00	inactivity	86 mL/mol	–
CC(C)CCO [3-methyl-1-butanol]	did not reduce activity	2.89	–	109 mL/mol	–
CCC(O)CC [3-pentanol]	–	4.69	–	107 mL/mol	–
CC(C)CCCO [4-methyl-1-pentanol]	–	9.36	inactivity	126 mL/mol	–
OCc1ccccc1 [benzyl alcohol]	did not	2.52	–	104 mL/mol	–
OC1CCC1 [cyclobutanol]	inhibited	0.91	–	78 mL/mol	–
OC1CCCC1 [cyclopentanol]	did not	2.24	inactivity	92 mL/mol	–
OCC1CC1 [cyclopropyl methanol]	active	0.71	–	71 mL/mol	–
CC(O)C1CC1 (centres unmarked) [cyclopropyl-ethanol, cyclopropylethanol]	abolished activity	0.83	inactivity	91 mL/mol	–
CC(C)c1cccc(C(C)C)c1O [propofol]	did not inhibit	1.00	–	86 mL/mol	–
BMP-7: growth factor that induces expression of L1 in neural cells (protein, UniProt P18075 293-431, looked up) Bone morphogenetic protein 7: STGSKQRSQNRSKTPKNQEALRMANVAENSSSDQRQACKKHELYVSFRDLGWQDWIIAPEGYAAYYCEGECAFPLNSYMNATNHAIVQTLVHFINPETVPKPCCAPTQLNAISVLYFDDSSNVILKKYRNMVVRACGCH	–	–	–	–	Percentage of cell clusters ([4]; 0.1-40 ng/ml BMP-7, 3 days): dose-dependent increase; Percentage of adherent NG108-15 cells ([1]; 48 hours, 10-20 ng/ml BMP-7, control 17.0±[…]): 50.0±1.4%

Reference: patent publication US6359015B1, “Method for antagonizing inhibition effects of alcohol on cell adhesion” (The United States of America as represented by the …, priority 2000, dated 2002)
